According to ChEMBL document CHEMBL1141477, “Synthesis and anticancer activity studies of cyclopamine derivatives” (Bioorg Med Chem Lett, 2008):
Active and inactive are the calls of the source. No cut-off for these calls is given here.

These molecules were tested on A549 (assay: Anticancer activity against human A549 cells at 200 uM by MTS assay).
Assay type: functional, cell-based

Question: For CC(=O)OC[C@H]1O[C@@H](n2cc(CN3C[C@@H](C)C[C@H]4O[C@]5(CC[C@@H]6C(=C5C)C[C@H]5[C@H]6CC=C6C[C@@H](O)CC[C@@]65C)[C@H](C)[C@@H]43)nn2)[C@H](OC(C)=O)[C@@H](OC(C)=O)[C@@H]1O[C@@H]1O[C@H](COC(C)=O)[C@@H](OC(C)=O)[C@H](OC(C)=O)[C@H]1OC(C)=O, which Activity is on record?
Answer: The Activity was “inactive”.

Question: How did the Activity turn out when CC(=O)N[C@@H]1[C@@H](OC(C)=O)[C@H](OC(C)=O)[C@@H](COC(C)=O)O[C@H]1n1cc(CN2C[C@@H](C)C[C@H]3O[C@]4(CC[C@@H]5C(=C4C)C[C@H]4[C@H]5CC=C5C[C@@H](O)CC[C@@]54C)[C@H](C)[C@@H]32)nn1 was run?
Answer: Its Activity is “inactive”.

Question: How did the Activity turn out when CC(=O)OC[C@H]1OC(n2cc(CN3C[C@@H](C)C[C@H]4O[C@]5(CC[C@@H]6C(=C5C)C[C@H]5[C@H]6CC=C6C[C@@H](O)CC[C@@]65C)[C@H](C)[C@@H]43)nn2)[C@@H](OC(C)=O)[C@@H](OC(C)=O)[C@@H]1OC(C)=O (stereo partly specified) was run?
Answer: Its Activity is “inactive”.

Question: How did the Activity turn out when CC(=O)N[C@@H]1[C@@H](OC(C)=O)[C@@H](OC(C)=O)[C@@H](COC(C)=O)O[C@H]1n1cc(CN2C[C@@H](C)C[C@H]3O[C@]4(CC[C@@H]5C(=C4C)C[C@H]4[C@H]5CC=C5C[C@@H](O)CC[C@@]54C)[C@H](C)[C@@H]32)nn1 was run?
Answer: The Activity was “inactive”.

Question: Which Activity does the source give for CC(=O)O[C@@H]1[C@@H](OC(C)=O)[C@@H](n2cc(CN3C[C@@H](C)C[C@H]4O[C@]5(CC[C@@H]6C(=C5C)C[C@H]5[C@H]6CC=C6C[C@@H](O)CC[C@@]65C)[C@H](C)[C@@H]43)nn2)OC[C@H]1OC(C)=O here?
Answer: The Activity was “inactive”.

Question: Which Activity does the source give for CC(=O)OC[C@H]1O[C@@H](n2cc(CN3C[C@@H](C)C[C@H]4O[C@]5(CC[C@@H]6C(=C5C)C[C@H]5[C@H]6CC=C6C[C@@H](O)CC[C@@]65C)[C@H](C)[C@@H]43)nn2)[C@H](OC(C)=O)[C@@H](OC(C)=O)[C@H]1OC(C)=O here?
Answer: Its Activity is “inactive”.

The molecules below were run on A549 (assay: Anticancer activity against human A549 cells by MTS assay).
Assay type: functional, cell-based

Question: Which IC50 does the source give for CC1=C2C[C@H]3[C@@H](CC=C4C[C@@H](O)CC[C@@]43C)[C@@H]2CC[C@]12O[C@@H]1C[C@H](C)CN[C@H]1[C@H]2C [CYCLOPAMINE] here?
Answer: The IC50 was 49 µM.

Question: How did the IC50 turn out when CC(=O)OC[C@H]1O[C@@H](n2cc(CN3C[C@@H](C)C[C@H]4O[C@]5(CC[C@@H]6C(=C5C)C[C@H]5[C@H]6CC=C6C[C@@H](O)CC[C@@]65C)[C@H](C)[C@@H]43)nn2)[C@H](OC(C)=O)[C@@H](OC(C)=O)[C@@H]1OC(C)=O was run?
Answer: The IC50 was 144 µM.

Question: How did the IC50 turn out when CC(=O)OC[C@H]1O[C@@H](n2cc(CN3C[C@@H](C)C[C@H]4O[C@]5(CC[C@@H]6C(=C5C)C[C@H]5[C@H]6CC=C6C[C@@H](O)CC[C@@]65C)[C@H](C)[C@@H]43)nn2)[C@H](OC(C)=O)[C@@H](OC(C)=O)[C@@H]1O[C@@H]1O[C@H](COC(C)=O)[C@@H](O[C@@H]2O[C@H](COC(C)=O)[C@@H](OC(C)=O)[C@H](OC(C)=O)[C@H]2OC(C)=O)[C@H](OC(C)=O)[C@H]1OC(C)=O was run?
Answer: The IC50 was 96 µM.

Question: CC(=O)OC[C@H]1O[C@@H](O[C@H]2[C@H](OC(C)=O)[C@@H](OC(C)=O)[C@H](n3cc(CN4C[C@@H](C)C[C@H]5O[C@]6(CC[C@@H]7C(=C6C)C[C@H]6[C@H]7CC=C7C[C@@H](O)CC[C@@]76C)[C@H](C)[C@@H]54)nn3)O[C@@H]2COC(C)=O)[C@H](OC(C)=O)[C@@H](OC(C)=O)[C@H]1OC(C)=O was tested. Which IC50 did it give?
Answer: Its IC50 is 183 µM.

Question: For CC(=O)O[C@@H]1[C@@H](OC(C)=O)[C@@H](OC(C)=O)C(n2cc(CN3C[C@@H](C)C[C@H]4O[C@]5(CC[C@@H]6C(=C5C)C[C@H]5[C@H]6CC=C6C[C@@H](O)CC[C@@]65C)[C@H](C)[C@@H]43)nn2)O[C@H]1C (stereo partly specified), which IC50 is on record?
Answer: The IC50 was 33 µM.
